Results as given in PMC6248945, “Antibacterial properties of the pituitary adenylate cyclase-activating polypeptide: A new human antimicrobial peptide” (PLoS ONE, 2018).
Where two headings read alike, the source gives them in different places. Where a SMILES comes first, the peptide text is derived from it. Where no end group is shown, it is not given here.

Tests used:
[1] = test system: Bacillus circulans (LSPQ3543); conditions: 20 h
[2] = test system: Actinobacillus pleuropneumoniae (4074); conditions: 20 h
[3] = test system: Staphylococcus aureus (ATCC6538#P); conditions: ATCC6538, 20 h
[4] = test system: Pseudomonas putida (KT2440); conditions: 20 h
[5] = test system: Pseudomonas fluorescens (MF37); conditions: 20 h
[6] = test system: various bacterial strains; conditions: CLSI microdilution
[7] = test system: Bacillus amyloliquefaciens (LMG22478); conditions: LMG22478, 20 h
[8] = test system: Burkholderia cenocepacia (J2315); conditions: 20 h
[9] = test system: Bacillus cereus (ATCC11778); conditions: ATCC11778, 20 h
[10] = test system: Burkholderia thailendensis (ATCC700388); conditions: CLSI microdilution, MHB, 37 °C, 20h, OD read-out; at least triplicate
Bacillus subtilis (PY79) = conditions: PY79, 20 h
[11] = test system: Staphylococcus aureus (Newman); conditions: 20 h
Bacillus velezensis = conditions: 20 h
[12] = test system: Serratia marcescens (ATCC14756); conditions: ATCC14756, 20 h
Escherichia coli (JM109) = experiment: MIC, CLSI microdilution; type: cell-based; conditions: MHB, 37 °C, 20h, OD read-out, at least triplicate
[13] = test system: Pseudomonas aeruginosa (PA14); conditions: PA14, 20 h
CHO-K1 = conditions: various eukaryotic cells including CHO-K1; cited from earlier work
Description: This peptide, well known for its pleiotropic activities in human, mediates its biological activities through the activation of three G protein-coupled receptors, named PAC1, VPAC1, and VPAC2[8]. […] The ...

Red blood cells = experiment: Haemolytic activity; type: cell-based; conditions: human red blood cells in PBS, 30 min or 3h, 37°C; at 45 μg/mL (PACAP38) or 37 μg/mL (PACAP(9–38)); absorbance 545 nm; 3 independent experiments in triplicate
Method: All experimental procedures were performed in accordance with regulations and ethical guidelines and approved by the institutional committee of the Institut National de la Recherche Scientifique-Institut Armand-Frappier. Blood from healthy human volunteers was collected into sodium citrate-buffered vacutainers. Blood donations were obtained from informed and consenting individuals according to institutionally approved procedures. Red blood cells were pelleted (700 x g; 10 min), washed three times with 9 volumes of PBS by centrifugation (700 x g; 10 min), and then resuspended in PBS. […] PBS-incubated red blood cells were considered as negative control and maximum lysis of erythrocytes was obtained by incubating the cells with 0.1% (v/v) Triton X-100. At the end of the incubation period, cells were pelleted (700 x g, 10 min) and 100 μL of each supernatant was used to evaluate the release of hemoglobin by measuring the absorbance at 545 nm. Results were obtained from 3 independent experiments performed in triplicate.

human PAC1 receptor = target: T1, human PAC1 receptor (Homo sapiens, UniProt P41586); experiment: Radioligand binding assay, 125I-Ac-PACAP27
T1 construct: expressed in transfected cells

human VPAC2 receptor = target: T2, human VPAC2 receptor (Homo sapiens, UniProt P41587); experiment: Radioligand binding assay, 125I-Ac-PACAP27; conditions: CHO cells expressing human VPAC2, 0.05 nM 125I-Ac-PACAP27, 2h, room temperature
T2 construct: expressed in transfected cells
Method: (§1) Chinese hamster ovary (CHO) cells stably and individually expressing human receptor PAC1, VPAC1 or VPAC2 were grown in Ham’s F12 medium supplemented with 10% of fetal bovine serum (FBS), 2 mM L-glutamine, 100 UI/mL of penicillin and streptomycin (P/S) and 400 μg/mL of G418. The cell line was maintained at 37 °C in a humidified atmosphere of 5% CO2 and passages were performed by trypsinization when cells reached about 80% confluence.
(§2) Acetylated PACAP27 was radioiodinated using the chloramine-T oxidation technique and purified on a Sep-Pak C18 cartridge (Waters, Milford, MA, USA). Binding assays were performed using CHO cells stably transfected with the human PAC1, VPAC1 or VPAC2 receptor isoform. Cells were seeded at a density of 150,000 cells/well in 24-well plates. The next day, cells were washed with binding buffer (0.1% BSA, 25 mM Tris–HCl, 25 mM MgCl2, pH 7.4) for 10 min at room temperature. The solution was replaced with a fresh solution containing 0.05 nM of ^125I-Ac-PACAP27 and increasing concentrations of peptide (10^−14 to 10^-5M). After 2h of incubation at room temperature, cells were washed twice with the binding buffer and then lysed with sodium hydroxide (0.1 M). Cell-bound radioactivity was quantified using a γ-counter. Results were expressed as percentage of specific binding of ^125I-Ac-PACAP27.

human VPAC1 receptor = target: T3, human VPAC1 receptor (Homo sapiens, UniProt P32241); experiment: Radioligand binding assay, 125I-Ac-PACAP27
T3 construct: expressed in transfected cells
Method: as §1, §2

T2 sequence (P41587 24-438): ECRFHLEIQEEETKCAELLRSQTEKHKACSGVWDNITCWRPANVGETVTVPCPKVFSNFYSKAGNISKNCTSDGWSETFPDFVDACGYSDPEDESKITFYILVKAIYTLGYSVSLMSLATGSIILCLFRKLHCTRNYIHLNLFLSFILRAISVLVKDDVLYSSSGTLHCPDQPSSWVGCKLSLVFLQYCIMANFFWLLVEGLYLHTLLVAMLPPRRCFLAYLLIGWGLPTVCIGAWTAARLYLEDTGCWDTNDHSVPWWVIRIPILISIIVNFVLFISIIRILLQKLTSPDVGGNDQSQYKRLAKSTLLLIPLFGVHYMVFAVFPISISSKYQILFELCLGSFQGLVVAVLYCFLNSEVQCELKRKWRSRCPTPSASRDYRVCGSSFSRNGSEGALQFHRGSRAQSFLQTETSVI
T3 sequence (P32241 31-457): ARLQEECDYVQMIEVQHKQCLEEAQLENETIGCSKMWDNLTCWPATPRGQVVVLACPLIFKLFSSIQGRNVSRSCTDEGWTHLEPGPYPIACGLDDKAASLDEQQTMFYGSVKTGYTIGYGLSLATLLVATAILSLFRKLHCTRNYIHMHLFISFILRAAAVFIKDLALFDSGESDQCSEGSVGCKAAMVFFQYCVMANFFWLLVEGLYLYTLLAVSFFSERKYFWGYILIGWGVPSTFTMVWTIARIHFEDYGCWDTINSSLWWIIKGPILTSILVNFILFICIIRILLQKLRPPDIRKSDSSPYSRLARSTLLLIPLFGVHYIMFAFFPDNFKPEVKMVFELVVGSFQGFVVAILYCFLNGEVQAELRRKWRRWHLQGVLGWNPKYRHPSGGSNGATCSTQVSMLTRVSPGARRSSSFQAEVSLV
T1 sequence (P41586 21-468): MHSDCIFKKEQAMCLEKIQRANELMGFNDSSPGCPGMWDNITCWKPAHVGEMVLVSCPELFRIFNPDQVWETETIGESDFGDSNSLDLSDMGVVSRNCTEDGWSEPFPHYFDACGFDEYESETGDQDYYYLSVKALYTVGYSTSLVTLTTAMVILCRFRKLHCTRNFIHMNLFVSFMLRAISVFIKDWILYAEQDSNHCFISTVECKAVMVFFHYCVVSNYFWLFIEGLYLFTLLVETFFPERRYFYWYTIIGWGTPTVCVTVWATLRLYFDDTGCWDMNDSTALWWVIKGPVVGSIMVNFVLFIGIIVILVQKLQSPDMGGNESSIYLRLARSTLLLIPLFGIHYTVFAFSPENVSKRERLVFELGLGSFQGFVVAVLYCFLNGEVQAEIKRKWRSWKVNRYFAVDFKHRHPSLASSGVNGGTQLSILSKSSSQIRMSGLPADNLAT

CC[C@H](C)[C@H](NC(=O)CNC(=O)[C@H](CC(=O)O)NC(=O)[C@H](CO)NC(=O)[C@@H](N)Cc1c[nH]cn1)C(=O)N1Cc2ccccc2C[C@H]1C(=O)N[C@H](C(=O)N[C@@H](CC(=O)O)C(=O)N[C@@H](CO)C(=O)N[C@@H](Cc1ccc(O)cc1)C(=O)N[C@@H](CO)C(=O)N[C@@H](CCCNC(=N)N)C(=O)N[C@@H](Cc1ccc(O)cc1)C(=O)N[C@@H](CCCNC(=N)N)C(=O)N[C@@H](CCCCN)C(=O)N[C@@H](CCC(N)=O)C(=O)N[C@@H](CCSC)C(=O)N[C@@H](C)C(=O)N[C@H](C(=O)N[C@@H](CCCCN)C(=O)N[C@@H](CCCCN)C(=O)N[C@@H](Cc1ccc(O)cc1)C(=O)N[C@@H](CC(C)C)C(=O)N[C@@H](C)C(=O)N[C@@H](C)C(=O)N[C@H](C(=O)N[C@@H](CC(C)C)C(N)=O)C(C)C)C(C)C)[C@@H](C)O [compound 8, [Tic^6]PACAP27]
MIC, Bacillus circulans (LSPQ3543) [1]: >160 µg/mL
MIC, Actinobacillus pleuropneumoniae [2]: >160 µg/mL
MIC, Staphylococcus aureus (ATCC6538#P) [3]: >160 µg/mL
MIC, Pseudomonas putida (KT2440) [4]: >160 µg/mL
MIC, Pseudomonas fluorescens (MF37) [5]: >160 µg/mL
MIC (ability to reduce bacterial growth, tested strains) [6]: > 160 µg/mL
MIC, Bacillus amyloliquefaciens [7]: >160 µg/mL
MIC, Burkholderia cenocepacia (J2315) [8]: >160 µg/mL
MIC, Bacillus cereus (ATCC11778) [9]: >160 µg/mL
MIC, Burkholderia thailendensis (ATCC700388) [10]: >160 µg/mL
MIC, Bacillus subtilis (PY79) (Bacillus subtilis (PY79)): >160 µg/mL
MIC, Staphylococcus aureus (Newman) [11]: >160 µg/mL
MIC, Bacillus velezensis (Bacillus velezensis): >160 µg/mL
MIC, Serratia marcescens (ATCC14756) [12]: >160 µg/mL
MIC, Escherichia coli (JM109) (Escherichia coli (JM109)): >160 µg/mL
MIC, Pseudomonas aeruginosa (PA14) [13]: >160 µg/mL

[Arg^17]PACAP(11–38) (SRYRKQRAVKKYLAAVLGKRYKQRVKNK; ends and bridges not checked; UniProt P18509 142-169, looked up, variant M17R)
Cytotoxic effect (CHO-K1): no cytotoxic effect

CSCC[C@H](NC(=O)[C@H](CCC(N)=O)NC(=O)[C@H](CCCCN)NC(=O)[C@H](CCCN=C(N)N)NC(=O)[C@H](Cc1ccc(O)cc1)NC(=O)[C@H](CCCN=C(N)N)NC(=O)[C@H](CO)NC(=O)[C@H](Cc1ccc(O)cc1)NC(=O)[C@@H](N)CO)C(=O)N[C@@H](C)C(=O)N[C@H](C(=O)N[C@@H](CCCCN)C(=O)N[C@@H](CCCCN)C(=O)N[C@@H](Cc1ccc(O)cc1)C(=O)N[C@@H](CC(C)C)C(=O)N[C@@H](C)C(=O)N[C@@H](C)C(=O)N[C@H](C(=O)N[C@@H](CC(C)C)C(=O)NCC(=O)N[C@@H](CCCCN)C(=O)N[C@@H](CCCN=C(N)N)C(=O)N[C@@H](Cc1ccc(O)cc1)C(=O)N[C@@H](CCCCN)C(=O)N[C@@H](CCC(N)=O)C(=O)N[C@@H](CCCN=C(N)N)C(=O)N[C@H](C(=O)N[C@@H](CCCCN)C(=O)N[C@@H](CC(N)=O)C(=O)N[C@@H](CCCCN)C(N)=O)C(C)C)C(C)C)C(C)C [compound 10, PACAP(9–38)] (H-SYSRYRKQMAVKKYLAAVLGKRYKQRVKNK-NH2)
Haemolytic activity (Red blood cells): do not exert a very significant haemolytic activity
IC50 (human PAC1 receptor): > 1000 nM
IC50 (human PAC1 receptor; PAC1 pIC50, CHO cells expressing human PAC1, 0.05 nM 125I-Ac-PACAP27, 2h, room temperature): 1350 nM
IC50 (human VPAC2 receptor; 95% confidence limits in parentheses): > 1000 nM
IC50 (human VPAC2 receptor; read-out: VPAC2 pIC50 (converted)): 1700 nM
IC50 (human VPAC1 receptor): > 1000 nM
IC50 (human VPAC1 receptor; VPAC1 pIC50, CHO cells expressing human VPAC1, 0.05 nM 125I-Ac-PACAP27, 2h, room temperature): 5130 nM
